As usually defined, the AC50 is the concentration at which the activity in the assay is half-maximal.

Consider eleven compounds from patent US20250346600A1, “TRICYCLIC DERIVATIVES AND RELATED USES” (MOMA Therapeutics, Inc., priority 2023, published 2025).

Assay [1] addresses T1, Full length WRN protein (aa 2-1432) (Homo sapiens (Human), UniProt Q14191). Kind of assay: WRN ATPase ADP-Glo biochemical assay, Assay Format B (100 μM ATP). Conditions: 0.25 nM WRN, 100 nM C6.18 ssDNA, 60 min preincubation, read-out: ATPase ADPGlo AC50 (uM)- Assay Format B. In general terms: ADP-Glo first removes unused ATP, then detects ADP through luciferase.
Assay [2] addresses T1, Full length WRN protein (aa 2-1432). Kind of assay: WRN ATPase ADP-Glo biochemical assay, Assay Format A (10 μM ATP). Conditions: 0.25 nM WRN, 100 nM C6.18 ssDNA, 30 min preincubation, read-out: ATPase ADPGlo AC50 (uM)- Assay Format A. Put shortly: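 ADP-Glo luminescence measured hydrolysis of ATP by purified, baculovirus-expressed N-terminally tagged full-length WRN. Enzyme (0.5 nM) was preincubated 30 min with compound, then 200 nM ssDNA C6.18 plus 20 μM ATP were added (pre-mix levels) for 30 min at RT. IC50s come from four-parameter fits, geometric mean of at least two trials.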

Another assay deals with HCT116 cells. Put plainly: HCT116 (MSI) 7 day viability, CellTiter Glo. Conditions: Homo sapiens, HCT-116, 168 h, 7 days, read-out: HCT116 (MSI) Viability 7 Day Abs AC50. Type of assay: cell-based. Put shortly:
(§1)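 HCT116 seeded at 50 cells/well and HT29 at 500 cells/well onto compound plates (10-point 3-fold dilutions from 10 mM DMSO stock), incubated 7 days at 37 °C, 5% CO2.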
For orientation: In ATP-based viability assays light output follows the ATP content of the culture.

The test system of another assay is HT29 cells. Put plainly: HT29 (MSS) 7 day viability, CellTiter Glo. Type of assay: cell-based. Conditions: Homo sapiens, HT-29, 168 h, 7 days, read-out: HT29 (MSS) Viability 7 Day CTGAbs AC50. The essentials:
as §1

T1 sequence (Q14191 2-1432): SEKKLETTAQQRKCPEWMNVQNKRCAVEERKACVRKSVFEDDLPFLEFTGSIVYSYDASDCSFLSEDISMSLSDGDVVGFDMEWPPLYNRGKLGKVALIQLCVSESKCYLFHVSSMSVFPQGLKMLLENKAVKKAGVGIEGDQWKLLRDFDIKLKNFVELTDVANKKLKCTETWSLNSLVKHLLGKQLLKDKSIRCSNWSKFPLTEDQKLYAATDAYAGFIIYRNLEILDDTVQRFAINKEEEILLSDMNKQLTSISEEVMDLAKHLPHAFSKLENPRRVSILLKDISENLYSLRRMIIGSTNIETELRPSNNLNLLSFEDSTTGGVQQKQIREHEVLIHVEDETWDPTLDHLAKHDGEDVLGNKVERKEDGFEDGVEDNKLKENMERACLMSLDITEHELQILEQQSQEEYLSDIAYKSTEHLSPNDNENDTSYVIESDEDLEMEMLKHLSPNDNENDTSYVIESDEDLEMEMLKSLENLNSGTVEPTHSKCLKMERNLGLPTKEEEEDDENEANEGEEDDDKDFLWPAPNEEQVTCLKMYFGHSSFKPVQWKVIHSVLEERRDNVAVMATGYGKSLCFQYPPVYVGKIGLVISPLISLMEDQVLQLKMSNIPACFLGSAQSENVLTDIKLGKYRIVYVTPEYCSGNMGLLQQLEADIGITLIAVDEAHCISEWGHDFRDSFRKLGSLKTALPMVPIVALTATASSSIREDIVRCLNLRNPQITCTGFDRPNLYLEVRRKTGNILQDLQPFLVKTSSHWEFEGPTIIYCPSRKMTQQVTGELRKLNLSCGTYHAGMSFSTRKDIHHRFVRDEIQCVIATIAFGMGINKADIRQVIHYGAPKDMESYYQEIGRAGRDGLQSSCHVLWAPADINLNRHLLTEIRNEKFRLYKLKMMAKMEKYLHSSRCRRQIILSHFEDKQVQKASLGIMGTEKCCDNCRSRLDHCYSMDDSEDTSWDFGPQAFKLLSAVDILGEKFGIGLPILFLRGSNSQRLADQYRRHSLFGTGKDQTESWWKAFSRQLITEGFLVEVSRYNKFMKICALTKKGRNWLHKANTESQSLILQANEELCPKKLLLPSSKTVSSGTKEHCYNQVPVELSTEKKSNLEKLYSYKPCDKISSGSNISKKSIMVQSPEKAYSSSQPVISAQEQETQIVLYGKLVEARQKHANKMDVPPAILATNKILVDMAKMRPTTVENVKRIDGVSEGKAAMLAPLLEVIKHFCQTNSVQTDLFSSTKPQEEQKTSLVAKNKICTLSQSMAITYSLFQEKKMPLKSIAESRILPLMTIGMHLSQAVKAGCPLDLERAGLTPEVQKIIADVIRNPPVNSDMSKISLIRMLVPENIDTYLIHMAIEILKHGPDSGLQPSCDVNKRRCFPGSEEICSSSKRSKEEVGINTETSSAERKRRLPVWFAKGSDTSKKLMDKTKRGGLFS

Turning to `C=CC(=O)N1CCc2nn(-c3ccc(C4CC4)cc3O)c3c2C(C1)N(C(=O)c1cnc(OC(F)(F)F)c(F)c1N)CC3` (centres unmarked) [Compound 247, 1-(5-(4-amino-5-fluoro-6-(trifluoromethoxy)nicotinoyl)-2-(4-cyclopropyl-2-hydroxyphenyl)-2,3,4,5,5a,6,8,9-octahydro-7H-1,2,5,7-tetraazabenzo[cd]azulen-7-yl)prop-2-en-1-one], the AC50 in assay [1] was 0.005 to 0.015 µM; in assay [2] it was 0.0015 to 0.005 µM; in the assay with HCT116 cells, 1 to 100 nM; in the assay with HT29 cells, greater than 3000 nM.
Consider `C=CC(=O)N1CCc2nn(-c3ccc(C4CC4)cc3O)c3c2C(C1)N(C(=O)c1nnc(C(F)(F)F)cc1N)CC3` (centres unmarked) [Compound 248, 1-(5-(4-amino-6-(trifluoromethyl)pyridazine-3-carbonyl)-2-(4-cyclopropyl-2-hydroxyphenyl)-2,3,4,5,5a,6,8,9-octahydro-7H-1,2,5,7-tetraazabenzo[cd]azulen-7-yl)prop-2-en-1-one], for which the concentration at half-maximal activity (AC50) in assay [1] is 0.0015 to 0.005 µM; in assay [2], less than 0.0015 µM; with HCT116 cells, 1 to 100 nM; with HT29 cells it was greater than 3000 nM.
Take `C=CC(=O)N1CC(OCc2nnc(C)s2)c2nn(-c3ccc(C4CC4)cc3)c3c2C(C1)N(C(=O)c1cnc(C(F)(F)F)cc1N)CC3` (centres unmarked) [Compound 249, 1-(5-(4-amino-6-(trifluoromethyl)nicotinoyl)-2-(4-cyclopropylphenyl)-9-((5-methyl-1,3,4-thiadiazol-2-yl)methoxy)-2,3,4,5,5a,6,8,9-octahydro-7H-1,2,5,7-tetraazabenzo[cd]azulen-7-yl)prop-2-en-1-one]: the AC50 in assay [1] was 0.0015 to 0.005 µM; in assay [2] it was less than 0.0015 µM; in the assay on HCT116 cells, 1 to 100 nM; in the assay with HT29 cells it was greater than 3000 nM.
As to `C=CC(=O)N1CC(OCc2ncco2)c2nn(-c3ccc(C4CC4)cc3)c3c2C(C1)N(C(=O)c1cnc(C(F)(F)F)cc1N)CC3` (centres unmarked) [Compound 250, 1-(5-(4-amino-6-(trifluoromethyl)nicotinoyl)-2-(4-cyclopropylphenyl)-9-(oxazol-2-ylmethoxy)-2,3,4,5,5a,6,8,9-octahydro-7H-1,2,5,7-tetraazabenzo[cd]azulen-7-yl)prop-2-en-1-one], the AC50 was less than 0.0015 µM in assay [1], less than 0.0015 µM in assay [2], 1 to 100 nM with HCT116 cells and greater than 3000 nM with HT29 cells.
For the compound `C=CC(=O)N1CC(OCc2cccnc2)c2nn(-c3ccc(C4CC4)cc3)c3c2C(C1)N(C(=O)c1cnc(C(F)(F)F)cc1N)CC3` (centres unmarked) [Compound 251, 1-(5-(4-amino-6-(trifluoromethyl)nicotinoyl)-2-(4-cyclopropylphenyl)-9-(pyridin-3-ylmethoxy)-2,3,4,5,5a,6,8,9-octahydro-7H-1,2,5,7-tetraazabenzo[cd]azulen-7-yl)prop-2-en-1-one], the AC50 in assay [1] was 0.005 to 0.015 µM; in assay [2], less than 0.0015 µM; in the assay on HCT116 cells, 1 to 100 nM; in the assay with HT29 cells, greater than 3000 nM.
Turning to `C=CC(=O)N1CCc2nn(-c3ccc(C4CC4)cc3OC(F)F)c3c2C(C1)N(C(=O)c1cnc(C(F)(F)F)cc1N)CC3` (centres unmarked) [Compound 252, 1-(5-(4-amino-6-(trifluoromethyl)nicotinoyl)-2-(4-cyclopropyl-2-(difluoromethoxy)phenyl)-2,3,4,5,5a,6,8,9-octahydro-7H-1,2,5,7-tetraazabenzo[cd]azulen-7-yl)prop-2-en-1-one], the AC50 in assay [1] is 0.005 to 0.015 µM; in assay [2], 0.0015 to 0.005 µM; in the assay on HCT116 cells, 1 to 100 nM; in the assay with HT29 cells it was greater than 3000 nM.
The matching figures for `C=CC(=O)N1CC(OCC2CCOCC2)c2nn(-c3ccc(C4CC4)cc3)c3c2C(C1)N(C(=O)c1cnc(C(F)(F)F)cc1N)CC3` (centres unmarked) [Compound 255, 1-(5-(4-amino-6-(trifluoromethyl)nicotinoyl)-2-(4-cyclopropylphenyl)-9-((tetrahydro-2H-pyran-4-yl)methoxy)-2,3,4,5,5a,6,8,9-octahydro-7H-1,2,5,7-tetraazabenzo[cd]azulen-7-yl)prop-2-en-1-one]: 0.005 to 0.015 µM, less than 0.0015 µM, 1 to 100 nM and greater than 3000 nM.
The matching figures for `C=CC(=O)N1CCc2nn(-c3ccc(C4CC4)cc3C(F)(F)F)c3c2C(C1)N(C(=O)c1cnc(C(F)(F)F)cc1N)CC3` (centres unmarked) [Compound 256, 1-(5-(4-amino-6-(trifluoromethyl)nicotinoyl)-2-(4-cyclopropyl-2-(trifluoromethyl)phenyl)-2,3,4,5,5a,6,8,9-octahydro-7H-1,2,5,7-tetraazabenzo[cd]azulen-7-yl)prop-2-en-1-one]: greater than 0.055 µM, 0.015 to 0.055 µM, 250 to 500 nM and greater than 3000 nM.
The matching figures for `CS(=O)(=O)/C=C/CN1CCc2nn(-c3ccc(C4CC4)cc3O)c3c2C(C1)N(C(=O)c1cnc(C(F)(F)F)cc1N)CC3` (centres unmarked) [Compound 257, (4-amino-6-(trifluoromethyl)pyridin-3-yl)(2-(4-cyclopropyl-2-hydroxyphenyl)-7-(3-(methylsulfonyl)allyl)-3,4,6,7,8,9-hexahydro-2H-1,2,5,7-tetraazabenzo[cd]azulen-5(5aH)-yl)methanone]: greater than 0.055 µM, greater than 0.055 µM, greater than 1000 nM and greater than 3000 nM.
As for `C=CC(=O)N1CCc2nn(-c3ccc(C4CC4)c(F)c3O)c3c2C(C1)N(C(=O)c1cnc(OC(F)(F)F)c(F)c1N)CC3` (centres unmarked) [Compound 258, 1-(5-(4-amino-5-fluoro-6-(trifluoromethoxy)nicotinoyl)-2-(4-cyclopropyl-3-fluoro-2-hydroxyphenyl)-2,3,4,5,5a,6,8,9-octahydro-7H-1,2,5,7-tetraazabenzo[cd]azulen-7-yl)prop-2-en-1-one], the AC50 was 0.015 to 0.055 µM in assay [1], 0.005 to 0.015 µM in assay [2], 1 to 100 nM with HCT116 cells and greater than 3000 nM with HT29 cells.
`C=CC(=O)N1CC(OCC2=CCOCC2)c2nn(-c3ccc(C4CCC4)cc3)c3c2C(C1)N(C(=O)c1cnc(C(F)(F)F)cc1N)CC3` (centres unmarked) [Compound 260, 1-(5-(4-amino-6-(trifluoromethyl)nicotinoyl)-2-(4-cyclobutylphenyl)-9-((3,6-dihydro-2H-pyran-4-yl)methoxy)-2,3,4,5,5a,6,8,9-octahydro-7H-1,2,5,7-tetraazabenzo[cd]azulen-7-yl)prop-2-en-1-one]: the AC50 is 0.0015 to 0.005 µM in assay [1], less than 0.0015 µM in assay [2], 1 to 100 nM with HCT116 cells and greater than 3000 nM in the assay on HT29 cells.
